# Measurements: patent publication US8648110B2, “2-aryl-acetic acids, their derivatives and pharmaceutical compositions containing them” (Dompe Pha.R.Ma S.p.A., priority 2003, dated 2014)
# What was measured:
# [1] = target: T1, CXCR1 (Homo sapiens, UniProt P25024); assay: IL-8 induced PMN chemotaxis (CXCR1); assay type: cell-based; details: for IL-8 inhibitory activity: result in words, IL-8 induced chemotaxis; for inhibition at 0.01 µM: compound c = 10^−8 M, IL-8 induced human PMN chemotaxis
# T1 construct: endogenous in cells; host or cells: human polymorphonucleate leukocytes (PMNs) isolated from blood of healthy volunteers
# T1 sequence (P25024 1-350): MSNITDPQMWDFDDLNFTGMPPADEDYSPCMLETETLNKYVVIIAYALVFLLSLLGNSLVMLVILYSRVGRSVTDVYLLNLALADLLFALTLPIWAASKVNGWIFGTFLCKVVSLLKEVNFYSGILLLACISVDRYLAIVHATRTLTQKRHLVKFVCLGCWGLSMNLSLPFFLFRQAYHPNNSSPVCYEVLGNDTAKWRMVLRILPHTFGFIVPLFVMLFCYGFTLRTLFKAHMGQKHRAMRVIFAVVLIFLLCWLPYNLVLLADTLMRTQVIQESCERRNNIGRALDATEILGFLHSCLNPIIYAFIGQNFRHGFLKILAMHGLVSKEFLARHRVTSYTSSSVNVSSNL
# [2] = target: T2, CXCR2 (Homo sapiens, UniProt P25025); assay: GRO-α induced PMN chemotaxis (CXCR2); assay type: cell-based; details: compound c = 10^−8 M
# T2 construct: endogenous in cells; host or cells: human polymorphonucleate leukocytes (PMNs) isolated from blood of healthy volunteers
# T2 sequence (P25025 1-360): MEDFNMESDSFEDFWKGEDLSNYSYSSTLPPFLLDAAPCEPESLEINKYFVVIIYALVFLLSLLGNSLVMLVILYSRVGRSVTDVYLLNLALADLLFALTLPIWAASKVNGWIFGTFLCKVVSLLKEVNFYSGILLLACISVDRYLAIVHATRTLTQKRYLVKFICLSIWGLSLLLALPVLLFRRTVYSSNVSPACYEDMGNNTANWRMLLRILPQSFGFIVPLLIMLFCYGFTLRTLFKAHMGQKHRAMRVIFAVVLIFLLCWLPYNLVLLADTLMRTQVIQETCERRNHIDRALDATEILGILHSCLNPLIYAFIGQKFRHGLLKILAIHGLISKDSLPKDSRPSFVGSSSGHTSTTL
# Experimental: The compounds of the invention of formula I were evaluated in vitro for their ability to inhibit chemotaxis of polymorphonucleate leukocytes (hereinafter referred to as PMNs) and monocytes induced by the fractions of IL-8 and GRO-α. For this purpose, in order to isolate the PMNs from heparinized human blood, taken from healthy adult volunteers, mononucleates were removed by means of sedimentation on dextran (according to the procedure disclosed by W. J. Ming et al., J. Immunol., 138, 1469, 1987) and red blood cells by a hypotonic solution. The cell viability was calculated by exclusion with Trypan blue, whilst the ratio of the circulating polymorphonucleates was estimated on the cytocentrifugate after staining with Diff Quick.
# During the chemotaxis assay (according to W. Falket et al., J. Immunol. Methods, 33, 239, 1980) PVP-free filters with a porosity of 5 μm and microchambers suitable for replication were used.
# The compounds of the invention of formula (I) and (Ia) were evaluated at a concentration ranging between 10^−6 and 10^−10 M; for this purpose they were added, at the same concentration, both to the lower pores and the upper pores of the microchamber. Evaluation of the ability of the compounds of the invention of formula I to inhibit IL-8-induced chemotaxis of human monocytes was carried out according to the method disclosed by Van Damme J. et al. (Eur. J. Immunol., 19, 2367, 1989).
# The biological activity of compounds showing high potency either as inhibitors of IL-8 induced PMN chemotaxis (CXCR1) or as dual inhibitors of IL-8 and GRO-α induced PMN chemotaxis (CXCR1/CXCR2) is reported in Table 1.
inhibition at 0.01 µM [1] [%],inhibition at 0.01 µM [2] [%],Structure (SMILES),IL-8 inhibitory activity [1]
,,"O=C(O)Cc1cccc(C(=O)c2ccccc2)c1 [ketofenac, 2-[3-benzoylphenyl]acetic acid, reference compound]",do not exert any IL-8 inhibitory activity
60 ± 10,4 ± 8,"Cc1cc(CC(C)C)ccc1CC(=O)O [Example 4, (4-isobutyl-2-methylphenyl)acetic acid]",
50 ± 10,46 ± 14,"CC(=O)c1ccc(CC(=O)NS(C)(=O)=O)n1C [Example 41, (5-acetyl-1-methyl-1H-pyrrol-2-yl)acetyl methanesulfonamide]",
67 ± 14,0,"Cc1cc(CC(C)C)ccc1CC(=O)NS(C)(=O)=O [Example 42, (4-isobutyl-2-methylphenyl)acetyl methanesulfonamide]",
60 ± 7,52 ± 5,"Cc1cc(NS(=O)(=O)C(F)(F)F)ccc1CC(=O)NS(C)(=O)=O [Example 43, {2-methyl-4-[(trifluoromethanesulfonyl)amino]phenyl}acetyl methanesulfonamide]",
62 ± 8,5 ± 10,"Cc1c(CC(=O)O)cccc1C(C)C [Example 2, (3-isopropyl-2-methylphenyl)acetic acid]",
58 ± 11,65 ± 11,"CC(C)C(=O)c1ccc(CC(=O)O)n1C [Example 12, (5-isobutyryl-1-methyl-1H-pyrrol-2-yl)acetic acid]",
67 ± 14,27 ± 8,"CCC(=O)c1cccc(CC(=O)O)c1Cl [Example 3, (2-chloro-3-propionylphenyl)acetic acid]",
,,"CC(C)Cc1ccc(CC(=O)O)cc1 [ibufenac, 2-[4-isobutylphenyl]acetic acid, reference compound]",do not exert any IL-8 inhibitory activity
60 ± 7,65 ± 5,"CC(=O)c1ccc(CC(=O)O)n1C [Example 11, (5-acetyl-1-methyl-1H-pyrrol-2-yl)acetic acid]",
54 ± 10,44 ± 9,"CC(=O)c1ccc(CC(N)=O)n1C [Example 19, (5-acetyl-1-methyl-1H-pyrrol-2-yl)acetamide]",
